{"source": "paper PMC8157280", "about": "(Pharmaceutics, 2021)", "key": {"Sprague-Dawley rats [1]": {"system": "Sprague-Dawley rats", "test": "GHB-induced respiratory depression, whole-body plethysmography", "conditions": "for Respiratory depression (in words): ketamine alone, or naloxone 2 mg/kg i.v. with or without SCH50911 10 mg/kg given 5 min after GHB-ketamine; for Breathing frequency (in words) / Minute volume (in words) / Tidal volume (in words): GHB 600 mg/kg i.v. alone or with ketamine 6 mg/kg + 1 mg/kg/min, treatments 5 min after GHB-ketamine, compared to GHB-ketamine"}, "Sprague-Dawley rats [2]": {"system": "Sprague-Dawley rats", "test": "Fatality after GHB with or without ketamine", "conditions": "GHB 400 mg/kg i.v. bolus + 208 mg/kg/h infusion and/or ketamine 6 mg/kg bolus + 1 mg/kg/min infusion; n = 8"}, "RBE4 cells": {"system": "RBE4 cells", "test": "[3H]-GHB uptake in RBE4 cells", "format": "cell-based, rat", "conditions": "for GHB uptake compared with GHB alone / GHB uptake in the presence of staurosporine: 10 mM GHB; for GHB uptake in the presence of staurosporine: 2 h pre-incubation with ketamine 40 µM or PMA 100 nM plus staurosporine", "experimental": "The immortalized rat brain capillary endothelial cell line (RBE4) was kindly provided by Professor P. Couraud (Institut Cochin, Paris, France). RBE4 cells (passages 39–44) were used in all studies, as described previously. Briefly, cells were grown at 37 °C with 5% CO2 on Type-I collagen-coated flasks, and media was changed every 2–3 days. The culture medium was 1:1 α-minimum essentials medium/Hams F10 nutrient mixture supplemented with L-glutamine (2.0 mM), geneticin (300 μg/mL), human recombinant fibroblast growth factor (1 ng/mL), gentamicin (50 μg/mL), and 10% v/v fetal bovine serum (FBS). Cells were passaged using 0.25% trypsin/EDTA and seeded on individual 35 × 10 mm collagen-coated wells for uptake studies which were performed 7 days post-confluence (the time needed for formation of tight junctions).\nIn addition, the effect of various pre-incubation times with ketamine (0.5, 2, 4, 8 and 24 h) was also studied in these cells. […] After cell lysis, NaOH was neutralized with 0.5 mL 1.0 N HCl."}, "[3]": {"test": "GHB toxicokinetics (plasma and urine, noncompartmental analysis)", "conditions": "for Ketamine plasma concentration in the study: ketamine 6 mg/kg i.v. bolus + 1 mg/kg/min infusion, maintained up to 1 h"}, "[4]": {"conditions": "cited from earlier work"}, "Sprague-Dawley rats [5]": {"system": "Sprague-Dawley rats", "test": "Sedative effect (sleep time, righting reflex)", "conditions": "GHB 400 mg/kg i.v. + ketamine 6 or 20 mg/kg i.v.; compared to GHB or ketamine alone"}, "[6]": {"parameters": "method as in PMID 12667908", "conditions": "GHB 400 mg/kg i.v. alone; cited from earlier work"}, "[7]": {"test": "GHB blood-brain partitioning at steady state", "conditions": "GHB 400 mg/kg i.v. bolus + 208 mg/kg/h infusion alone; steady state 4 h"}, "[8]": {"conditions": "GHB 600 mg/kg i.v. bolus, ketamine 6 mg/kg i.v. bolus + 1 mg/kg/min infusion, L-lactate 66 mg/kg + 302.5 mg/kg/h, AR-C155858 1 mg/kg, SCH50911 10 mg/kg or naloxone 2 mg/kg i.v. 5 min after GHB-ketamine"}}, "note": "Counter-ions that a name gives are not always drawn.", "data": [{"smiles": "CNC1(c2ccccc2Cl)CCCCC1=O", "note": "(racemic) [ketamine, (±) Ketamine Hydrochloride]", "values": [{"measurement": "Respiratory depression (in words)", "setting": "Sprague-Dawley rats [1]", "result": "did not result in any significant respiratory depression"}, {"measurement": "Fatality", "setting": "Sprague-Dawley rats [2]", "result": "No death was observed"}, {"measurement": "GHB uptake compared with GHB alone", "setting": "RBE4 cells; 15 s, 2 h pre-incubation with ketamine 5, 15 or 40 µM at 37 °C", "result": "significantly increased"}, {"measurement": "GHB uptake compared with GHB alone", "setting": "RBE4 cells; 15 s, ketamine 5, 15, 40 µM without pre-incubation", "result": "no significant change in GHB uptake"}, {"measurement": "GHB uptake compared with GHB alone", "setting": "RBE4 cells; 0.5, 2 and 4 h pre-incubation with 40 µM ketamine", "result": "significant increases in GHB uptake"}, {"measurement": "GHB uptake in the presence of staurosporine", "setting": "RBE4 cells", "result": "no increase in GHB uptake"}, {"measurement": "GHB uptake compared with GHB alone", "setting": "RBE4 cells; longer pre-incubation times (8 and 24 h) with 40 µM ketamine", "result": "no significant changes"}, {"measurement": "Steady-state concentration of ketamine with GHB compared to ketamine alone", "setting": "[3]; GHB 600 mg/kg i.v., ketamine 6 mg/kg bolus + 1 mg/kg/min for 60 min", "result": "no significant difference"}, {"measurement": "Ketamine plasma concentration in the study", "setting": "[3]", "result": "~ 7 µg/mL"}, {"measurement": "Ketamine plasma concentration in the study", "setting": "[3]; listed as Ketamine", "result": 7, "unit": "µg/mL"}, {"measurement": "Ketamine plasma concentrations associated with fatalities", "setting": "[4]", "result": "1.8 to 27.4", "unit": "µg/mL"}, {"measurement": "Effect of co-administration on GHB sleep time", "setting": "Sprague-Dawley rats [5]", "result": "significant increase in sleep time"}]}, {"smiles": "Cc1n[nH]c(C)c1Cc1sc2c(c1C(=O)N1C[C@H](O)CO1)c(=O)n(C)c(=O)n2CC(C)C", "note": "[AR-C155858, 6-[(3,5-Dimethyl-1H-pyrazol-4-yl)methyl]-5-[[(4S)-4-hydroxy-2-isoxazolidinyl]carbonyl]-3-methyl-1-(2-methylpropyl)thieno [2,3-d]pyrimidine-2,4(1H,3H)-dione]", "values": [{"measurement": "Breathing frequency (in words)", "setting": "Sprague-Dawley rats [1]", "result": "significant and rapid improvement in breathing frequency"}, {"measurement": "Minute volume (in words)", "setting": "Sprague-Dawley rats [1]", "result": "completely reversed the decline in minute volume"}]}, {"smiles": "O=C(O)CCCO", "note": "[GHB, γ-hydroxybutyric acid]", "values": [{"measurement": "Breathing frequency (in words)", "setting": "Sprague-Dawley rats [1]", "result": "decrease in breathing frequency"}, {"measurement": "Minute volume (in words)", "setting": "Sprague-Dawley rats [1]", "result": "remaining unchanged"}, {"measurement": "Tidal volume (in words)", "setting": "Sprague-Dawley rats [1]", "result": "compensatory increase in tidal volume"}, {"measurement": "Frequency AUEC", "setting": "Sprague-Dawley rats [1]; [8]", "result": "5540 ± 1000", "unit": "breaths"}, {"measurement": "Frequency Emax", "setting": "Sprague-Dawley rats [1]; [8]", "result": "31 ± 5", "unit": "breaths/min"}, {"measurement": "Frequency Td", "setting": "Sprague-Dawley rats [1]; [8]", "result": "153 ± 12.5", "unit": "min"}, {"measurement": "Fatality", "setting": "Sprague-Dawley rats [2]", "result": "No death was observed"}, {"measurement": "Cbrain (brain GHB concentration at RRR)", "setting": "[6]", "result": "71.7 ± 9.89", "unit": "µg/g"}, {"measurement": "Cplasma (plasma GHB concentration at RRR)", "setting": "[6]", "result": "379 ± 86.2", "unit": "µg/mL"}, {"measurement": "Cbrain GHB", "setting": "[7]", "result": "0.21 ± 0.03", "unit": "mg/g"}]}, {"smiles": "C[C@H](O)C(=O)[O-].[Na+]", "note": "[L-lactate, sodium L-lactate]", "values": [{"measurement": "Breathing frequency (in words)", "setting": "Sprague-Dawley rats [1]", "result": "significant improvement in breathing frequency and minute volume"}, {"measurement": "Minute volume (in words)", "setting": "Sprague-Dawley rats [1]", "result": "significant improvement in breathing frequency and minute volume"}, {"measurement": "Tidal volume (in words)", "setting": "Sprague-Dawley rats [1]", "result": "no change in tidal volume"}]}, {"smiles": "C=CCN1CC[C@]23c4c5ccc(O)c4O[C@H]2C(=O)CC[C@@]3(O)[C@H]1C5", "note": "[Naloxone, naloxone hydrochloride dihydrate]", "values": [{"measurement": "Respiratory depression (in words)", "setting": "Sprague-Dawley rats [1]", "result": "no effects"}]}, {"smiles": "CCCCCCCCCCCCCC(=O)O[C@@H]1[C@@H](C)[C@@]2(O)[C@@H](C=C(CO)C[C@]3(O)C(=O)C(C)=C[C@@H]23)[C@@H]2C(C)(C)[C@]12OC(C)=O", "note": "[PMA, phorbol 12-myristate 13-acetate]", "values": [{"measurement": "GHB uptake compared with GHB alone", "setting": "RBE4 cells; 2 h pre-incubation with PMA 100 nM", "result": "significant increase in GHB uptake"}, {"measurement": "GHB uptake in the presence of staurosporine", "setting": "RBE4 cells", "result": "no increase in GHB uptake"}]}, {"smiles": "CC1(C)CO[C@@H](CC(=O)O)CN1", "note": "[SCH50911, (2S)-(+)-5,5-Dimethyl-2-morpholineacetic acid]", "values": [{"measurement": "Breathing frequency (in words)", "setting": "Sprague-Dawley rats [1]", "result": "significant improvement in breathing frequency and minute volume"}, {"measurement": "Minute volume (in words)", "setting": "Sprague-Dawley rats [1]", "result": "significant improvement in breathing frequency and minute volume"}, {"measurement": "Tidal volume (in words)", "setting": "Sprague-Dawley rats [1]", "result": "compensatory increase in tidal volume was also absent"}]}, {"smiles": "CN[C@@H]1C[C@H]2O[C@@](C)([C@@H]1OC)n1c3ccccc3c3c4c(c5c6ccccc6n2c5c31)C(=O)NC4", "note": "[staurosporine]", "values": [{"measurement": "Effect on the increase in GHB uptake by PMA and ketamine", "setting": "RBE4 cells; RBE4 cells, co-incubation during 2 h pre-incubation", "result": "significantly inhibited"}]}]}
